Data published in ChEMBL document CHEMBL4184088, “Synthesis and biological evaluation of novel doxorubicin-containing ASGP-R-targeted drug-conjugates” (Bioorg Med Chem Lett, 2018).
Active and inactive are the calls of the source. The calls are words filed in the database; no cut-off is given here.

Tests used:
[1] = Drug uptake in human HEK293 cells assessed as assessed as doxorubicin conjugates accumulation at 10 uM after 6 hrs by fluorescence assay; assay type: ADME, cell-based; settings: hek293, 6 h
[2] = Drug localization in human HepG2 cell cytoplasm at assessed as doxorubicin conjugates accumulation 10 uM after 24 hrs by DAPI staining-based fluorescence microscopic analysis; assay type: ADME; settings: hepg2, 24 h
[3] = Drug uptake in human HEK293 cells assessed as doxorubicin conjugates accumulation at 10 uM after 24 hrs by fluorescence assay; assay type: ADME, cell-based; settings: hek293, 24 h
[4] = Drug uptake in human HepG2 cells assessed as doxorubicin conjugates accumulation at 10 uM after 6 hrs by fluorescence assay; assay type: ADME, cell-based; settings: hepg2, 6 h
[5] = system: HepG2; assay: Cytotoxicity against human HepG2 cells assessed as reduction in cell viability at 100 umol after 48 hrs by MTS assay relative to control; assay type: functional
[6] = system: HepG2; assay: Cytotoxicity against human HepG2 cells assessed as cell viability up to 70 uM after 2 hrs by MTS assay; assay type: functional, cell-based
[7] = Drug localization in human HepG2 cell nucleus assessed as doxorubicin conjugates accumulation at 10 uM after 24 hrs by DAPI staining-based fluorescence microscopic analysis; assay type: ADME; settings: hepg2, 24 h
[8] = system: HepG2; assay: Cytostatic activity against human HepG2 cells assessed as cell viability at 0.02 to 70 uM after 48 hrs by MTS assay; assay type: functional, cell-based

Row | Drug uptake [1] | Drug uptake [2] | Drug uptake [3] | Drug uptake [4] | Drug uptake [7] | Structure (SMILES) | Activity [5] | Activity [6] | Activity [8]
1 | Active | Active | Active | Active | – | COc1cccc2c1C(=O)c1c(O)c3c(c(O)c1C2=O)C[C@@](O)(C(=O)CO)C[C@@H]3O[C@H]1C[C@H](NC(=O)CCCc2cn([C@@H]3O[C@H](CO)[C@H](O)[C@H](O)[C@H]3NC(C)=O)nn2)[C@H](O)[C@H](C)O1 | 20 - 30% | inactive | –
2 | – | – | – | Not Active | Not Active | COc1cccc2c1C(=O)c1c(O)c3c(c(O)c1C2=O)C[C@@](O)(C(=O)CO)C[C@@H]3O[C@H]1C[C@H](N)[C@H](O)[C@H](C)O1.Cl [DOXORUBICIN HYDROCHLORIDE] | – | inactive | Active
3 | Active | Active | – | Active | – | COc1cccc2c1C(=O)c1c(O)c3c(c(O)c1C2=O)C[C@@](O)(C(=O)CO)C[C@@H]3O[C@H]1C[C@H](NC(=O)CCCc2cn(CCO[C@@H]3O[C@H](CO)[C@H](O)[C@H](O)[C@H]3NC(C)=O)nn2)[C@H](O)[C@H](C)O1 | 20 - 30% | inactive | –
4 | Active | Active | – | Active | – | C=CCO[C@@H]1O[C@H](Cn2cc(CCCC(=O)N[C@H]3C[C@H](O[C@H]4C[C@](O)(C(=O)CO)Cc5c(O)c6c(c(O)c54)C(=O)c4c(OC)cccc4C6=O)O[C@@H](C)[C@H]3O)nn2)[C@H](O)[C@H](O)[C@H]1NC(C)=O | 20 - 30% | inactive | –
